Laboratory results from patent publication US5567692A, “9-[(substituted glycyl) amido)]-6-demethyl-6-deoxytetracyclines” (priority 1995, dated 1996).
Values after ≈ are worked out from the molar mass of the structure shown. Where two headings read alike, the source gives them in different places.

Assays:
Moraxella catarrhalis = experiment: MIC range, recent clinical and veterinary isolates; assay type: cell-based; settings: 18 h, [18] isolates, read-out: MIC Range
Citrobacter diversus = experiment: MIC range, recent clinical and veterinary isolates; assay type: cell-based; settings: Citrobacter koseri, 18 h; Citrobacter diversus, [10] isolates; read-out: MIC Range
Streptococcus agalactiae = experiment: MIC range, recent clinical and veterinary isolates; assay type: cell-based; settings: 18 h, [10] isolates, read-out: MIC Range
Pseudomonas aeruginosa = experiment: MIC range, recent clinical and veterinary isolates; assay type: cell-based; settings: 18 h, [10] isolates, read-out: MIC Range
[1] = tested on: Staphylococcus aureus strain Smith (tetracycline sensitive); experiment: Acute lethal infection in mice, S. aureus Smith; assay type: in vivo; settings: Staphylococcus aureus, 168 h, mice, S. aureus Smith (Sens), 7 day survival, read-out: ED50
Morganella morganii = experiment: MIC range, recent clinical and veterinary isolates; assay type: cell-based; settings: 18 h, [16] isolates
[2] = tested on: Enterococcus spp, (Vancomycin-resistant); experiment: MIC range, recent clinical and veterinary isolates; assay type: cell-based; settings: 18 h, [8] isolates
[3] = tested on: Escherichia coli (Veterinary); experiment: MIC range, recent clinical and veterinary isolates; assay type: cell-based; settings: 18 h, [15] isolates
Enterococcus faecium = experiment: MIC range, recent clinical and veterinary isolates; assay type: cell-based; settings: 18 h, [10] isolates, read-out: MIC Range
Xanthamonas maltophilia = experiment: MIC range, recent clinical and veterinary isolates; assay type: cell-based; settings: 18 h; Xanthamonas maltophilia, [10] isolates; read-out: MIC Range
Neisseria gonorrhoeae = experiment: MIC range, recent clinical and veterinary isolates; assay type: cell-based; settings: 18 h, [14] isolates
[4] = tested on: Ps. aeruginosa ATCC 27853; experiment: MIC, agar dilution; assay type: cell-based; settings: Pseudomonas aeruginosa, ATCC27853, 18 h
Clostridium difficile = experiment: MIC range, recent clinical and veterinary isolates; assay type: cell-based; settings: Clostridium difficile, [12] isolates
[5] = tested on: Staphylococcus Coagulase-negative, (methicillin-susceptible); experiment: MIC range, recent clinical and veterinary isolates; assay type: cell-based; settings: 18 h, [14] isolates
Escherichia coli = experiment: MIC range, recent clinical and veterinary isolates; assay type: cell-based; settings: 18 h, [30] isolates, read-out: MIC Range
Streptococcus pneumoniae = experiment: MIC range, recent clinical and veterinary isolates; assay type: cell-based; settings: 18 h, [10] isolates, read-out: MIC Range
S. marcescens FPOR 8733 = experiment: MIC, agar dilution; assay type: cell-based; settings: Serratia marcescens, FPOR8733, 18 h
Shigella spp. = experiment: MIC range, recent clinical and veterinary isolates; assay type: cell-based; settings: 18 h, [14] isolates
E. coli J3272 Tet C = experiment: microbe, parasite or virus in culture; assay type: cell-based; settings: Escherichia coli, J3272TETC, 18 h
Salmonella spp. = experiment: MIC range, recent clinical and veterinary isolates; assay type: cell-based; settings: 18 h, [11] isolates
Citrobacter freundii = experiment: MIC range, recent clinical and veterinary isolates; assay type: cell-based; settings: [10] isolates
Streptococcus pyogenes = experiment: MIC range, recent clinical and veterinary isolates; assay type: cell-based; settings: 18 h, [10] isolates, read-out: MIC Range
Serratia marcescens = experiment: MIC range, recent clinical and veterinary isolates; assay type: cell-based; settings: 18 h, read-out: MIC Range
Enterococcus 12201 = experiment: MIC, agar dilution; assay type: cell-based; settings: Enterococcus, 12201, 18 h, Enterococcus 12201; read-out: MIC
[6] = tested on: Bacteroides fragilis group; experiment: MIC range, recent clinical and veterinary isolates; assay type: cell-based; settings: 18 h; Bacteroides fragilis group, [10] isolates; read-out: MIC Range
E. coli UBMS 90-5 = experiment: microbe, parasite or virus in culture; assay type: cell-based; settings: Escherichia coli, UBMS905, 18 h, E. coli UBMS 90-5; read-out: MIC
[7] = tested on: Staphylococcus Coagulase-negative, (methicillin-resistant); experiment: MIC range, recent clinical and veterinary isolates; assay type: cell-based; settings: 18 h, [16] isolates
[8] = tested on: Staphylococcus aureus, (methicillin-susceptible); experiment: MIC range, recent clinical and veterinary isolates; assay type: cell-based; settings: 18 h; Staphylococcus aureus (methicillin-susceptible), [15] isolates; read-out: MIC Range
Bacteroides fragilis = experiment: MIC range, recent clinical and veterinary isolates; assay type: cell-based; settings: [11] isolates
[9] = tested on: Bordetella bronchiseptica (Veterinary); experiment: MIC range, recent clinical and veterinary isolates; assay type: cell-based; settings: 18 h; Bordetella bronchiseptica (Veterinary), [10] isolates; read-out: MIC Range
Klebsiella oxytoca = experiment: MIC range, recent clinical and veterinary isolates; assay type: cell-based; settings: 18 h, [10] isolates, read-out: MIC Range
E. coli J3272 Tet sens = experiment: MIC, agar dilution; assay type: cell-based; settings: Escherichia coli, J3272TETSENS, 18 h
[10] = tested on: Pasturella multocida (Veterinary); experiment: MIC range, recent clinical and veterinary isolates; assay type: cell-based; settings: 18 h, [17] isolates
[11] = tested on: Escherichia coli UBMS 90-4 (Tet M); experiment: Acute lethal infection in mice, E. coli UBMS 90-4; settings: in Mus musculus, iv, 168 h
Proteus mirabilis = experiment: MIC range, recent clinical and veterinary isolates; assay type: cell-based; settings: 18 h, [26] isolates, read-out: MIC Range
Klebsiella pneumoniae = experiment: MIC range, recent clinical and veterinary isolates; assay type: cell-based; settings: 18 h, [10] isolates
Haemophilus influenzae = experiment: MIC range, recent clinical and veterinary isolates; assay type: cell-based; settings: 18 h, [15] isolates
Proteus vulgaris = experiment: MIC range, recent clinical and veterinary isolates; assay type: cell-based; settings: 18 h, read-out: MIC Range
Bacteroides spp. = experiment: MIC range, recent clinical and veterinary isolates; assay type: cell-based; settings: 18 h; Bacteroides spp., [9] isolates; read-out: MIC Range
E. faecalis ATCC 29212 = experiment: MIC, agar dilution; assay type: cell-based; settings: Enterococcus faecalis, ATCC29212, 18 h
Enterobacter aerogenes = experiment: MIC range, recent clinical and veterinary isolates; assay type: cell-based; settings: Klebsiella aerogenes, 18 h; Enterobacter aerogenes, [10] isolates; read-out: MIC Range
Enterobacter cloacae = experiment: MIC range, recent clinical and veterinary isolates; assay type: cell-based; settings: 18 h, [10] isolates, read-out: MIC Range
Anaerobic Gram(+)Cocci = experiment: MIC range, recent clinical and veterinary isolates; assay type: cell-based; settings: 18 h, read-out: MIC Range
Listeria monocytogenes = experiment: MIC range, recent clinical and veterinary isolates; assay type: cell-based; settings: 18 h, [8] isolates
Enterococcus faecalis = experiment: MIC range, recent clinical and veterinary isolates; assay type: cell-based; settings: 18 h, [10] isolates, read-out: MIC Range

## CN(C)c1ccc(O)c2c1C[C@H]1C[C@H]3[C@H](N(C)C)C(O)=C(C(N)=O)C(=O)[C@@]3(O)C(O)=C1C2=O [U, Minocycline, reference compound]
Moraxella catarrhalis
  MIC: 0.03 to 0.12 µg/mL (≈ 0.0656 to 0.262 µM)
Citrobacter diversus
  MIC: 0.25 to 4 µg/mL (≈ 0.546 to 8.74 µM)
Streptococcus agalactiae
  MIC: 0.12 to 16 µg/mL (≈ 0.262 to 35 µM)
Pseudomonas aeruginosa
  MIC: 1 to 16 µg/mL (≈ 2.19 to 35 µM)
[1]; iv, Intraveneous
  ED50: 0.37 mg/kg
[1]; po, Oral
  ED50: 0.74 mg/kg
Morganella morganii
  MIC: 0.25 to 32 µg/mL (≈ 0.546 to 69.9 µM)
[2]
  MIC: 0.03 to 16 µg/mL (≈ 0.0656 to 35 µM)
[3]
  MIC: 1 to 16 µg/mL (≈ 2.19 to 35 µM)
Enterococcus faecium
  MIC: 0.03 to 16 µg/mL (≈ 0.0656 to 35 µM)
Xanthamonas maltophilia
  MIC: 0.12 to 1 µg/mL (≈ 0.262 to 2.19 µM)
Neisseria gonorrhoeae
  MIC: 0.5 to 64 µg/mL (≈ 1.09 to 140 µM)
[4]
  MIC: 8 µg/mL (≈ 17.5 µM)
Clostridium difficile
  MIC Range: 0.015 to 16 µg/mL
[5]
  MIC: 0.015 to 0.25 µg/mL (≈ 0.0328 to 0.546 µM)
Escherichia coli
  MIC: 0.25 to 32 µg/mL (≈ 0.546 to 69.9 µM)
Streptococcus pneumoniae
  MIC: 0.06 to 0.5 µg/mL (≈ 0.131 to 1.09 µM)
S. marcescens FPOR 8733
  MIC: 4 µg/mL (≈ 8.74 µM)
Shigella spp.
  MIC: 0.25 to 8 µg/mL (≈ 0.546 to 17.5 µM)
E. coli J3272 Tet C
  MIC: 1 µg/mL (≈ 2.19 µM)
Salmonella spp.
  MIC: 0.5 to 16 µg/mL (≈ 1.09 to 35 µM)
Citrobacter freundii
  MIC Range: 0.03 to 32 µg/mL
Streptococcus pyogenes
  MIC: 0.03 to 2 µg/mL (≈ 0.0656 to 4.37 µM)
Serratia marcescens
  MIC: 1 to 8 µg/mL (≈ 2.19 to 17.5 µM)
Enterococcus 12201
  MIC: 8 µg/mL (≈ 17.5 µM)
[6]
  MIC: 0.008 to 4 µg/mL (≈ 0.0175 to 8.74 µM)
E. coli UBMS 90-5
  MIC: 1 µg/mL (≈ 2.19 µM)
[7]
  MIC: 0.03 to 1 µg/mL (≈ 0.0656 to 2.19 µM)
[8]
  MIC: 0.03 to 0.12 µg/mL (≈ 0.0656 to 0.262 µM)
Bacteroides fragilis
  MIC Range: <0.008 to 16 µg/mL
[9]
  MIC: 0.06 to 0.12 µg/mL (≈ 0.131 to 0.262 µM)
Klebsiella oxytoca
  MIC: 0.5 to 4 µg/mL (≈ 1.09 to 8.74 µM)
E. coli J3272 Tet sens
  MIC: 1 µg/mL (≈ 2.19 µM)
[10]
  MIC: 0.015 to 4 µg/mL (≈ 0.0328 to 8.74 µM)
[11]
  ED50: > 32 mg/kg
Proteus mirabilis
  MIC: 1 to 32 µg/mL (≈ 2.19 to 69.9 µM)
Klebsiella pneumoniae
  MIC: 0.5 to 8 µg/mL (≈ 1.09 to 17.5 µM)
Haemophilus influenzae
  MIC: 0.5 to 2 µg/mL (≈ 1.09 to 4.37 µM)
Proteus vulgaris
  MIC: 0.5 to 16 µg/mL (≈ 1.09 to 35 µM)
Bacteroides spp.
  MIC: 0.03 to 16 µg/mL (≈ 0.0656 to 35 µM)
E. faecalis ATCC 29212
  MIC: 2 µg/mL (≈ 4.37 µM)
Enterobacter aerogenes
  MIC: 0.5 to 1 µg/mL (≈ 1.09 to 2.19 µM)
Enterobacter cloacae
  MIC: 0.25 to 4 µg/mL (≈ 0.546 to 8.74 µM)
Anaerobic Gram(+)Cocci
  MIC: 0.05 to 8 µg/mL (≈ 0.109 to 17.5 µM)
Listeria monocytogenes
  MIC: 0.015 to 0.03 µg/mL (≈ 0.0328 to 0.0656 µM)
Enterococcus faecalis
  MIC: 0.03 to 16 µg/mL (≈ 0.0656 to 35 µM)
